Structures can show the parent of a compound that is named as a salt. Where two headings read alike, the source gives them in different places. One block for each molecule: values may come before it.
Tests used:
NO production = tested on: NO production; set-up: method as in Matheus et al. [37]; settings: ref Matheus et al. [37]; cited from earlier work
PGE2 = tested on: PGE2; set-up: method as in Matheus et al. [37]; settings: ref Matheus et al. [37]; cited from earlier work
[1] = tested on: 3T3 ccl-92 mouse fibroblast; assay: Crystal violet cytotoxicity assay, 3T3 ccl-92; assay type: cell-based; settings: 24 h incubation; max test concentration 50 µg/mL; > = <50% reduction in viability at max
Method: (§1) All extract/compounds were dissolved in DMSO and tested at 5 different concentrations of 50, 10, 2, 0.4, and 0.08 μg/mL for all anti-inflammatory assays unless otherwise noted. The final concentration of DMSO was 0.35% v/v for extracts and compounds. All samples were tested in triplicate at each concentration and each assay was independently repeated at least 3 times. The concentrations used for the cytotoxicity assays were 50, 25, 12.5, 6.25. and 3.125 μg/mL.
(§2) To check for cytotoxicity of the extracts and compounds against RAW264.7 mouse macrophage and 3T3 ccl-92 mouse fibroblast cell lines, the crystal violet cytotoxicity test was used according to the published protocol. In brief, RAW264.7 cells were seeded with a density of 2 × 10^4 cells/well in a 96-well plate and then incubated for 18–24 h. The following day the compounds/extracts were added and then incubated for 24 h before the media was aspirated and the cells washed twice in a gentle stream of water. After removing the water, 50 µL of 0.5% crystal violet staining solution were added and the cells were incubated for 20 min at room temperature. The plate was then washed 4 times with water and air dried for 2 h. Finally, 200 μL of methanol was added to each well and incubated for 20 min at room temperature on a rocker. This was followed by measuring the optical density at 570 nm with a plate reader Anthos Zenyth 200rt (Anthos Labtec Instruments, Heerhugowaard, The Netherlands). Chlorambucil was used as a positive control.

[2] = tested on: nitric oxide (NO) production; assay: NO inhibition assay (Greiss) in LPS-stimulated RAW264.7 macrophages; assay type: cell-based, mouse; settings: for IC50: read-out: NO IC50; for reduction of NO production: 50 µg/mL (maximum test concentration), relative to DMSO control; for lowest concentration with significant inhibition of NO production: significant vs DMSO control; for NO inhibitory activity (in words): LPS-stimulated RAW264.7, up to 50 µg/mL
Method: RAW264.7 macrophages were incubated 1 h with extracts/compounds prior to the addition of LPS. […] Then, 20 h after the addition of LPS, the supernatant was collected. […] The plates were incubated for 15–20 min in the dark, then read at 550 nm wavelength on an Anthos Zenyth 200rt (Anthos Labtec Instruments). Sodium nitrite was used to prepare a standard curve to quantify the nitrite from the absorbance readings in this assay. All data were processed in Microsoft Office Excel 2013 (MS) first to obtain descriptive statistics. One-way Analysis of Variance (ANOVA) followed by Dunnett’s multiple comparisons test was performed using GraphPad Prism version 6.00 for Windows (GraphPad Software, La Jolla, CA, USA, www.graphpad.com), with p < 0.05 considered significant.

PGE2 production = assay: PGE2 inhibition assay (ELISA) in calcium ionophore-stimulated 3T3 ccl-92 fibroblasts; assay type: cell-based, mouse; settings: for IC50: calcium ionophore-stimulated 3T3 ccl-92, max test concentration 50 µg/mL
Method: The levels of PGE2 were measured in cell media using a Cayman Prostaglandin E2 Express ELISA Kit (Cayman Chemical, Ann Arbor, MI, USA) according to the manufacturer’s instructions. In brief, the 3T3 ccl-92 fibroblasts (1 × 10^5 cells/mL) were grown overnight in a 96-well plate and then treated with extracts/compounds 3 h before being stimulated with Calcium ionophore (50 μM). After 20 min, supernatants were collected and PGE2 production was quantified by measuring the absorbance at 405 nm wavelength with an Anthos Zenyth 200rt (Anthos Labtech Instruments). Indomethacin at a concentration of 100 μM was used as a positive control and ~0.5% DMSO as a negative control.
(§3) All data were processed in Microsoft Office Excel 2013 (MS) first to obtain descriptive statistics. One-way Analysis of Variance (ANOVA) followed by Dunnett’s multiple comparisons test was performed using GraphPad Prism version 6.00 for Windows (GraphPad Software, La Jolla, CA, USA, www.graphpad.com), with p < 0.05 considered significant. The inhibitory concentration responsible for a 50% reduction in cell viability or production of inflammatory markers (IC50) was calculated using the regression analysis, Probit in SPSS v21.

NFκB translocation = assay: Assessment of NFκB translocation in LPS-stimulated RAW264.7; assay type: cell-based; settings: Mus musculus, RAW264.7, 40 µg/mL, LPS-stimulated RAW264.7, relative to DMSO + LPS
Method: This assay was performed according to the published protocol in Olivera et al.. RAW264.7 mouse macrophages were seeded at 400,000 cells/well in 800 μL in 4-well chambered slides and incubated overnight. The cells were then incubated with the test samples (40 μg/mL HBG extract, 6-bromoisatin, or 6-bromoindole) for 1 h prior to stimulation with LPS (700 ng/mL) for 30 min. After stimulation, the cells were washed with PBS and fixed with 3.7% paraformaldehyde for 15 min. […] The cells were washed with PBS and incubated with rabbit anti-p65 NFκB antibody (1:500) and goat anti-mouse IκB (1:500) overnight at 4 °C. The following day, the cells were washed again three times with PBS and incubated for 1 h with goat-anti-rabbit IgG conjugated with Alexa Fluor 594 (1:1000) and donkey anti-mouse IgG conjugated with Alexa fluor 488 (1:1000) at room temperature. Finally, the cells were washed with PBS then mounted with Prolong mounting media containing DAPI before visualising using the Olympus Flouview FVi10 confocal microscope (Olympus, Tokyo, Japan). Using ImageJ (v1.50i, National Institutes of Health, Bethesda, MD, USA), an outline was drawn around each nucleus by adjusting the colour threshold of DAPI. Mean fluorescence inside the nucleus was measured, along with several adjacent background readings. The total corrected cellular fluorescence (TCCF) was calculated by applying the equation TCCF = integrated density − (area of selected cell × mean fluorescence of background readings). This TCCF was then used to calculate the %inhibition of the NFκB translocation against the positive control where the cells were treated with LPS in the presence of the Vehicle (0.35% DMSO v/v) in Microsoft Office Excel 2013 (Redmond, WA, USA).

[3] = Crystal violet cytotoxicity assay, RAW264.7; settings: mouse
Method: as §1, §2

[4] = tested on: RAW264.7 mouse macrophage; assay: Crystal violet cytotoxicity assay, RAW264.7; settings: 24 h incubation; max test concentration 50 µg/mL; > = <50% reduction in viability at max, ~ = close to 50%
Method: as §1, §2

TNFα production = assay: TNF-alpha inhibition assay (ELISA) in LPS-stimulated RAW264.7 macrophages; assay type: cell-based, mouse; settings: for IC50: max test concentration 50 µg/mL, read-out: TNFα IC50
Method: The amount of TNFα was quantified in cell culture media using murine TNFα ELISA kits (BD bioscience). In brief, the RAW264.7 mouse macrophages (6 × 10^5 cells/mL) were stimulated with LPS (100 ng/mL) 1 h after treatment with several concentrations of extracts (0.08–50 μg/mL). After 18 h, the supernatant was collected and TNFα production was measured by reading the absorbance at 450 nm wavelength on an Anthos Zenyth 200rt microplate reader (Anthos Labtech Instruments). Dexamethasone at a concentration of 2.5 μM was used as a positive control, with a negative control of 0.35% DMSO.
as §3

[5] = Crystal violet cytotoxicity assay, 3T3 ccl-92; assay type: cell-based, mouse; settings: mouse, 3T3 ccl-92 fibroblast cells; 3T3, 50 µg/mL, 24 h incubation, compared to DMSO-treated wells
Method: as §1, §2

[6] = Mus musculus, RAW264.7, LPS-stimulated RAW264.7, max test concentration 50 µg/mL
[7] = Mus musculus, RAW264.7, LPS-stimulated RAW264.7

Structure (SMILES): O=C1Nc2ccc(I)cc2C1=O [Compound 5-iodoisatin, 5-iodoisatin]
inhibition of NO production (in words) (NO production): did not inhibit
inhibition of PGE2 (in words) (PGE2): did not inhibit

IC50 [2, 6]: > 50 µg/mL
Structure (SMILES): CSc1[nH]c2cc(Br)ccc2c1OS(=O)(=O)O [Tyrindoxyl sulfate, tyrindoxyl sulfate]
Cytotoxicity 3T3 ccl-92 (test concentration which causes toxicity) [1]: NA (not active at maximum test concentration 50 µg/mL)

Structure (SMILES): Brc1ccc2cc[nH]c2c1 [6-bromoindole]
IC50 (PGE2 production; Mus musculus, Fibroblast): 223 µM
IC50 (PGE2 production; listed as 6-bromoindole (11)): 223 µM
lowest concentration with significant PGE2 inhibition (PGE2 production; p < 0.05 vs solvent control): 0.08 µg/mL
Cytotoxicity 3T3 ccl-92 (test concentration which causes toxicity) [1]: NA (not active at maximum test concentration 50 µg/mL)
inhibition at 40 µg/mL (NFκB translocation): 60.7%
viability at 24 h, 50 µg/mL [3]: 66.4%
Cytotoxicity RAW264.7 (test concentration which causes toxicity) [4]: >255.04 µM
IC50 (TNFα production; LPS-stimulated RAW264.7, listed as 6-bromoindole (11)): 150 µM
IC50 (TNFα production; [7]): 150 µM
IC50 [2, 6]: 187 µM

Structure (SMILES): C[C@@H]1C[C@H]2[C@@H]3CCC4=CC(=O)C=C[C@]4(C)[C@@]3(F)[C@@H](O)C[C@]2(C)[C@@]1(O)C(=O)CO [dexamethasone, reference compound]
inhibition at 2.5 µM ([2]; Mus musculus, RAW264.7, working concentration 2.5 µM, positive control): 56%

IC50 [2, 6]: > 97.2 µM
Structure (SMILES): CSC1(C2(SC)Nc3cc(Br)ccc3C2=O)Nc2cc(Br)ccc2C1=O (stereo not shown) [tyriverdin]
Cytotoxicity 3T3 ccl-92 (test concentration which causes toxicity) [1]: NA (not active at maximum test concentration 50 µg/mL)
reduction of NO production [2]: less than 50%
lowest concentration with significant inhibition of NO production [2]: 10 µg/mL

IC50 [2, 6]: > 50 µg/mL
Structure (SMILES): O=C1Nc2cc(Br)ccc2C1=C1Nc2ccccc2C1=O [6-bromoindirubin]
viability at 24 h, 50 µg/mL [3]: 56.2%
NO inhibitory activity (in words) [2]: minimal inhibitory activity

IC50 [2, 6]: > 50 µg/mL
Structure (SMILES): O=C1C(=C2Nc3cc(Br)ccc3C2=O)Nc2cc(Br)ccc21 [6,6 dibromoindigo]
Cytotoxicity 3T3 ccl-92 (test concentration which causes toxicity) [1]: NA (not active at maximum test concentration 50 µg/mL)
NO inhibitory activity (in words) [2]: minimal inhibitory activity

IC50 [2, 6]: > 50 µg/mL
Structure (SMILES): O=C1Nc2c(Br)cccc2C1=O [7-bromoisatin]
viability at 24 h, 50 µg/mL [5]: 80.9%
Cytotoxicity 3T3 ccl-92 (test concentration which causes toxicity) [1]: >221.21 µM
viability at 24 h, 50 µg/mL [3]: 81.9%
reduction of NO production [2]: less than 5%

IC50 [2, 6]: > 50 µg/mL
Structure (SMILES): O=C1Nc2ccccc2/C1=C1/Nc2ccccc2C1=O [indirubin]
Cytotoxicity 3T3 ccl-92 (test concentration which causes toxicity) [1]: NA (not active at maximum test concentration 50 µg/mL)
NO inhibitory activity (in words) [2]: minimal inhibitory activity

Structure (SMILES): O=C1Nc2cccc(Br)c2C1=O [4-bromoisatin]
inhibition of NO production (in words) (NO production): did not inhibit
inhibition of PGE2 (in words) (PGE2): did not inhibit

IC50 (TNFα production; LPS-stimulated RAW264.7, listed as Tyrindoleninone (3)): 157 µM
IC50 (TNFα production; [7]): 157 µM
IC50 [2, 6]: 103 µM
IC50 [2, 7]: 26.4 µg/mL
Structure (SMILES): CSC1=Nc2cc(Br)ccc2C1=O [tyrindoleninone]
Cytotoxicity 3T3 ccl-92 (test concentration which causes toxicity) [1]: NA (not active at maximum test concentration 50 µg/mL)
viability at 24 h, 50 µg/mL [3]: 84.1%
lowest concentration with significant inhibition of NO production [2]: 0.08 µg/mL

IC50 (TNFα production; LPS-stimulated RAW264.7, listed as 6-bromoisatin (4)): 123 µM
IC50 (TNFα production; [7]): 123 µM
IC50 [2, 6]: 120 µM
IC50 [2, 7]: 27.1 µg/mL
Structure (SMILES): O=C1Nc2cc(Br)ccc2C1=O [6-bromoisatin]
IC50 (PGE2 production; Mus musculus, Fibroblast): > 221 µM
inhibition at 0.08 µg/mL (PGE2 production; Mus musculus, Fibroblast, 0.08 µg/mL): 10%
inhibition at 50 µg/mL (PGE2 production; Mus musculus, Fibroblast, 50 μg/mL): 40%
Cytotoxicity 3T3 ccl-92 (test concentration which causes toxicity) [1]: NA (not active at maximum test concentration 50 µg/mL)
inhibition at 40 µg/mL (NFκB translocation): 63.7%
lowest concentration with significant inhibition of NO production [2]: 0.4 µg/mL

Structure (SMILES): O=C1Nc2ccc(Br)cc2C1=O [5-bromoisatin]
Cytotoxicity 3T3 ccl-92 (test concentration which causes toxicity) [1]: NA (not active at maximum test concentration 50 µg/mL)
viability at 24 h, 50 µg/mL [3]: 55%
Cytotoxicity RAW264.7 (test concentration which causes toxicity) [4]: ~221.21 µM
IC50 (TNFα production; LPS-stimulated RAW264.7, listed as 5-bromoisatin (9)): 38 µM
IC50 (TNFα production; [7]): 38.1 µM
inhibition at 50 µg/mL (TNFα production; Mus musculus, RAW264.7, 50 μg/mL): 100%
IC50 ([2]; LPS-stimulated RAW264.7, max test concentration 50 µg/mL, listed as 5-bromoisatin (9)): 152 µM
IC50 [2, 6]: 152 µM
IC50 [2, 7]: 34.3 µg/mL
